From patent US8187822B2, “Methods to identify modulators” (Givaudan S.A., priority 2007, dated 2012)

Tests used:
TAS2R1 = molecular target: T1, TAS2R1 (Homo sapiens, UniProt Q9NYW7); test: Fluo-4 calcium assay, HEK293T cells stably expressing Gα16-gustducin44 and TAS2R1; format: cell-based
T1 construct: The full length gene of human TAS2R44 was amplified by polymerase chain reaction (PCR) using gene-specific primers that span the entire coding region; RSS tag (first 45 amino acids of rat somatostatin receptor subtype 3) (N); expressed in transfected cells
T1 sequence (Q9NYW7 1-299): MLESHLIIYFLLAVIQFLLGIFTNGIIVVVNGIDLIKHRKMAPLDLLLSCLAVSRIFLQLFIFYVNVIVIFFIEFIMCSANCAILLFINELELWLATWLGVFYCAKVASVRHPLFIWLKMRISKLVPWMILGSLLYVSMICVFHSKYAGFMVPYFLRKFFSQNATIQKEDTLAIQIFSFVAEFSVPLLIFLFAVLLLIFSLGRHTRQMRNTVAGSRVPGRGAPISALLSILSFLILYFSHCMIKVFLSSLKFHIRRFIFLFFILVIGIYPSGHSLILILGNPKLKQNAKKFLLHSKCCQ
Method: Cell lines that stably expresses a SABR (TAS2R44, TAS2R1, TAS2R10) was generated by transfecting pcDNA3.1Zeo-SABR into HEK293T/Gα16-gustducin 44 cells (both formed as described in example 1). The host cell line HEK-293T is commercially available from the American Tissue Culture Collection (ATCC), ATCC®# CRL-11268.
TAS2R1 expressing cells were identified by their response to 0.5 mM chloramphenicol (a known TAS2R1 agonist as described in WO 2006/053771) in addition to sucralose, which was determined via automated fluorimetric imaging on the FLIPR-Tetra instrumentation (Molecular Devices) using the methods described in Example 3. One clone was selected resulting in the HEK293T/Gα16-gustducin 44/TAS2R1 cell line.
At day 0, the HEK293T cell line expressing Gα16-gustducin44 and a TAS2R bitter taste receptor formed as described in examples 2b or 2c was seeded in antibiotic-free growth medium (standard DMEM with 10% (v/v) heat-inactivated fetal bovine serum, 2 mM L-glutamine[…]) into black wall/clear bottom 96-well plates, coated with poly(ethylenimine) (0.005% v/v) at a concentration of 15,000 cells per well and incubated for 48 hours in humidified atmosphere (37° C., 5% CO2).
At the time of the assay, the growth medium was discarded and the cells were in humidified atmosphere (37° C., 5% CO2) for 1 hour with 50 μl of loading buffer consisting of 1.5 μM Fluo-4 AM and […] probenicid (Sigma-Aldrich, St. Louis, Mo., US) in DMEM.
Afterwards, the 96-well plate was washed 5 times with 100 μl of assay buffer (130 mM NaCl, 5 mM KCl, 10 mM HEPES, 2 mM CaCl2, and 5 mM dextrose, pH 7.4) per well, using an automated plate washer (BioTek). The plate was further incubated for 30 minutes at room temperature in the dark to allow for complete de-esterification of the Fluo-4. Afterwards the plate was washed 5 times with 100 μl of assay buffer per well, and reconstituted with 100 μl of assay buffer per well.
For assay reading, the plate was placed in a Fluorometric Imaging Plate Reader (FLIPR) (FLIPR-TETRA™, Molecular Devices, Sunnyvale, Calif., US), and receptor activation was initiated by addition of 100 μl of a twofold concentrated agonist stock solution (to give the desired agonist end concentration when added to the 100 microliter assay buffer volume), which was prepared in assay buffer.
Fluorescence was continuously monitored for 20 seconds to give a signal baseline (averaged to give F0) prior to agonist addition and for 120 seconds after agonist addition. The change in signal divided by F0 gives ΔF/F0 indicated in the table, with ΔF being the maximum signal occurring within the 120 seconds minus the minimum signal (occurring within the 120 seconds after agonist addition.
All data was collected from at least two independent experiments each carried out in triplicate.
The obtained calcium signals were corrected for the response of cells expressing only the G Protein α subunit (Gα16-gustducin44) and normalized to the fluorescence of cells prior to the stimulus using ΔF/F0 (Fmax−Fmin/F0).
The intracellular calcium response following addition of sucralose was determined in HEK293T cell line stably expressing Gα16-gustducin44 and TAS2R1 formed as described in example 2c.

[1] = tested on: bitter-sensitive panelists; test: Sensory evaluation of bitter blocking in sucralose solution (forced choice); format: in vivo, human; conditions: for perceived bitterness of sucralose, in words: 13 ppm in 3 mM sucralose solution
Method: The bitter blocking capability of test cpd A (13 ppm) in sucralose (3 mM) solution was evaluated. Twenty ml of each solution (sucralose or sucralose with test cpd A) was presented in random order to 15 bitter-sensitive panelists. In two replications, panelists were asked to select the solution they perceived as more bitter. A beta-binomial analysis was calculated from the forced-choice data to correct for overdispersion. Because panelists evaluated bitterness over 2 replications, the data was subjected to a beta-binomial d′ analysis to determine whether over-dispersion occurred. Not accounting for over-dispersion has the potential to underestimate the significance level at which a test is conducted and therefore lead to false-positive results. The analysis refuted overdispersion (gamma=0.00; p=0.109) and no adjustments were necessary.

TAS2R1 ΔF/F0 (TAS2R1; sucralose 0.3906 mM)	TAS2R1 ΔF/F0 (TAS2R1; sucralose 0.7813 mM)	TAS2R1 ΔF/F0 (TAS2R1; sucralose 1.5625 mM)	TAS2R1 ΔF/F0 (TAS2R1; sucralose 3.1250 mM)	TAS2R1 ΔF/F0 (TAS2R1; sucralose 6.2500 mM)	TAS2R1 ΔF/F0 (TAS2R1; sucralose 12.5000 mM)	TAS2R1 ΔF/F0 (TAS2R1; sucralose 25.0000 mM)	TAS2R1 ΔF/F0 (TAS2R1; sucralose 50.0000 mM)	TAS2R1 ΔF/F0 (TAS2R1; sucralose 100.0000 mM)	SMILES	calcium signaling in TAS2R1 cells, in words (TAS2R1)	perceived bitterness of sucralose, in words [1]	perceived bitterness of sucralose, in words ([1]; listed as (E)-4-(2,2,3-trimethylcyclopent-3-enyl)but-2-enoic acid)	evaluations selecting the solution with test compound as less bitter than 3 mM sucralose solution ([1]; 13 ppm in 3 mM sucralose, 15 panelists, 2 replications, p<0.05)	d′ ([1]; 13 ppm in 3 mM sucralose, forced choice)
0.052	0.050	0.047	0.059	0.061	0.072	0.104	0.197	0.518	OC[C@H]1O[C@H](O[C@]2(CCl)O[C@H](CCl)[C@@H](O)[C@@H]2O)[C@H](O)[C@@H](O)[C@H]1Cl [Sucralose, sucralose]	significant concentration-dependent increase in calcium signaling	–	–	–	–
–	–	–	–	–	–	–	–	–	CC1=CCC(C/C=C/C(=O)O)C1(C)C (centres unmarked) [test cpd A, (E)-4-(2,2,3-trimethylcyclopent-3-enyl)but-2-enoic acid]	–	reduced the perceived bitterness	significantly reduce the bitter aftertaste of sucralose	22 of 30	0.88±0.12
